Measured values: ChEMBL document CHEMBL5728971, “Small molecule inhibitors of lactate dehydrogenase and methods of use thereof” (2022)

experiment: Biochemical Assay: Test compounds were placed in a Greiner Bio-One (Monroe, N.C.) 1536-well black solid bottom assay plate. 200 millimolar (mM) Tris HCl, pH 7.4, 100 micromolar (μM) EDTA and 0.01% TWEEN-20™, final concentration, was used as the assay buffer. The LDHA reagent was 2 nanomolar (nM) Human LDHA (Meridian Life Science, Inc., Memphis, Tenn.), final concentration, in assay buffer.

| Compound | IC50 |
| --- | --- |
| Cc1ccc(-c2cc(-c3c(Cc4ccc(S(N)(=O)=O)cc4F)c(CC4CC4)nn3-c3nc(C(=O)O)cs3)ccc2F)s1 | > 57000 nM |
| Cc1ccc(-c2cccc(-c3c(Cc4ccc(S(N)(=O)=O)c(F)c4)c(CC4CC4)nn3-c3nc(C(=O)O)cs3)c2)cc1 | in the range around 29000 nM |
| COc1cc(-c2c(Cc3ccc(S(N)(=O)=O)cc3)c(CC3CC3)nn2-c2nc(C(=O)O)cs2)ccc1F | in the range around 29000 nM |
| Cc1ccc(-c2cc(-c3c(Cc4ccc(S(N)(=O)=O)cc4)c(CC4CC4)nn3-c3nc(C(=O)O)cs3)ccc2F)cc1 | in the range around 29000 nM |
| NS(=O)(=O)c1ccc(Cc2c(-c3cccc(-c4ccccc4)c3)nn(-c3nc(C(=O)O)cs3)c2C2(C(F)(F)F)CC2)c(F)c1 | in the range around 550 nM |
| CC(C)c1ccc(-c2cc(-c3c(Cc4ccc(S(N)(=O)=O)cc4)c(CC4CC4)nn3-c3nc(C(=O)O)cs3)ccc2F)cc1 | in the range around 29000 nM |
| NS(=O)(=O)c1ccc(Cc2c(C3CC3)nn(-c3nc(C(=O)O)cs3)c2-c2cccc(-c3cccc(F)c3)c2)cc1F | in the range around 29000 nM |
| Cc1ccc(-c2cc(-c3c(Cc4ccc(S(N)(=O)=O)c(F)c4)c(CC4CC4)nn3-c3nc(C(=O)O)cs3)ccc2F)cc1 | in the range around 29000 nM |
| NS(=O)(=O)c1ccc(Cc2c(CC3CC3)nn(-c3nc(C(=O)O)cs3)c2-c2cccc(-c3ccccc3)c2)c(F)c1 | in the range around 29000 nM |
| NS(=O)(=O)c1ccc(Cc2c(C3CC3)nn(-c3nc(C(=O)O)cs3)c2-c2cccc(-c3ccc(F)cc3)c2)c(F)c1 | in the range around 29000 nM |
| CCOC(=O)c1csc(-n2nc(-c3ccc(F)c(-c4cccc(OC)c4)c3)c(Cc3ccc(S(N)(=O)=O)c(F)c3)c2C2CC2)n1 | > 57000 nM |
| NS(=O)(=O)c1ccc(Cc2c(CC3CC3)nn(-c3nc(C(=O)O)cs3)c2-c2ccc(F)c(-c3cccc(F)c3)c2)cc1 | in the range around 29000 nM |
| NS(=O)(=O)c1ccc(Cc2c(Cc3ccccc3)nn(-c3nc(C(=O)O)cs3)c2-c2ccccc2)cc1 | in the range around 29000 nM |
| CCOC(=O)c1csc(-n2nc(-c3cccc(-c4ccccc4)c3)c(Cc3ccc(S(N)(=O)=O)c(F)c3)c2CC2CC2)n1 | > 57000 nM |
| NS(=O)(=O)c1ccc(Cc2c(-c3cccc(-c4ccccc4)c3)nn(-c3nc(C(=O)O)cs3)c2C2(C(F)(F)F)CC2)cc1 | in the range around 29000 nM |
| CCOC(=O)c1csc(-n2nc(CC3CC3)c(Cc3ccc(S(N)(=O)=O)c(F)c3)c2-c2ccc(F)c(-c3cccc(F)c3)c2)n1 | > 57000 nM |
| CCOC(=O)c1csc(-n2nc(-c3ccccc3)c(Cc3ccc(S(N)(=O)=O)cc3)c2C2CC2)n1 | > 57000 nM |
| CCOC(=O)c1csc(-n2nc(-c3ccc(F)c(C#CC4CC4)c3)c(Cc3ccc(S(N)(=O)=O)cc3)c2CC2CC2)n1 | in the range around 29000 nM |
| NS(=O)(=O)c1cccc(Cc2c(-c3ccc(F)c(-c4cccc(F)c4)c3)nn(-c3nc(C(=O)O)cs3)c2CC2CC2)c1 | in the range around 29000 nM |

| Compound | IC50 |
| --- | --- |
| Cc1ccc(-c2cc(-c3c(Cc4ccc(S(N)(=O)=O)c(F)c4)c(CC4CC4)nn3-c3nc(C(=O)O)cs3)ccc2F)s1 | > 57000 nM |
| C#Cc1c(Cc2ccc(S(N)(=O)=O)cc2)c(-c2ccccc2)nn1-c1nc(C(=O)O)cs1 | in the range around 29000 nM |
| CCOC(=O)c1csc(-n2nc(-c3ccc(F)c(-c4ccc(C)cc4)c3)c(Cc3ccc(S(N)(=O)=O)c(F)c3)c2C2CC2)n1 | in the range around 29000 nM |
| CCOC(=O)c1csc(-n2nc(-c3ccc(F)c(-c4ccc(F)cc4)c3)c(Cc3ccc(S(N)(=O)=O)c(F)c3)c2C2CC2)n1 | in the range around 29000 nM |
| NS(=O)(=O)c1ccc(Cc2c(-c3cccc(-c4ccc(F)cc4)c3)nn(-c3nc(C(=O)O)cs3)c2C2CC2)cc1F | < 100 nM |
| NS(=O)(=O)c1ccc(Cc2c(C3CC3)nn(-c3nc(C(=O)O)cs3)c2-c2cccc(-c3ccc(F)cc3)c2)cc1F | in the range around 29000 nM |
| CC(C)c1ccc(-c2cc(-c3nn(-c4nc(C(=O)O)cs4)c(CC4CC4)c3Cc3ccc(S(N)(=O)=O)cc3)ccc2F)cc1 | < 100 nM |
| CC#Cc1cccc(-c2nn(-c3nc(C(=O)OCC)cs3)c(CC3CC3)c2Cc2ccc(S(N)(=O)=O)c(F)c2)c1 | in the range around 29000 nM |
| CC#Cc1cc(-c2nn(-c3nc(C(=O)OCC)cs3)c(CC3CC3)c2Cc2ccc(S(N)(=O)=O)c(F)c2)ccc1F | in the range around 29000 nM |
| Cc1ccc(C#Cc2cccc(-c3nn(-c4nc(C(=O)O)cs4)c(CC4CC4)c3Cc3ccc(S(N)(=O)=O)c(F)c3)c2)s1 | < 100 nM |
| COCC#Cc1cc(-c2nn(-c3nc(C(=O)O)cs3)c(CC3CC3)c2Cc2ccc(S(N)(=O)=O)c(F)c2)ccc1F | < 100 nM |
| O=C(O)c1csc(-n2nc(-c3ccccc3)cc2O)n1 | > 57000 nM |
| COc1cccc(-c2cc(-c3nn(-c4nc(C(=O)O)cs4)c(CC4CC4)c3Cc3ccc(S(N)(=O)=O)cc3F)ccc2F)c1 | < 100 nM |
| CCOC(=O)c1csc(-n2nc(-c3ccc(F)c(C#Cc4ccc(C)s4)c3)c(Cc3ccc(S(N)(=O)=O)c(F)c3)c2CC2CC2)n1 | > 57000 nM |
| NS(=O)(=O)c1ccc(Cc2c(-c3cccc(-c4ccc(F)cc4)c3)nn(-c3nc(C(=O)O)cs3)c2C2CC2)c(F)c1 | < 100 nM |
| NS(=O)(=O)c1ccc(Cc2c(-c3ccc(F)c(C4CCOCC4)c3)nn(-c3nc(C(=O)O)cs3)c2CC2CC2)cc1F | < 100 nM |
| NS(=O)(=O)c1ccc(Cc2c(-c3ccc(F)c(C#CC4=CCCC4)c3)nn(-c3nc(C(=O)O)cs3)c2CC2CC2)cc1F | < 100 nM |
| Cc1ccc(-c2cccc(-c3nn(-c4nc(C(=O)O)cs4)c(C4CC4)c3Cc3ccc(S(N)(=O)=O)c(F)c3)c2)cc1 | < 100 nM |
| CCOC(=O)c1csc(-n2nc(-c3ccc(F)c(C#CC4CCCC4)c3)c(Cc3cccc(S(N)(=O)=O)c3)c2CC2CC2)n1 | > 57000 nM |

Now from value to compound:

| IC50 | Compound |
| --- | --- |
| < 100 nM | NS(=O)(=O)c1ccc(Cc2cn(-c3nc(C(=O)O)cs3)nc2-c2ccc(F)c(F)c2)cc1 |
| < 100 nM | COc1cccc(-c2cccc(-c3nn(-c4nc(C(=O)O)cs4)c(C4CC4)c3Cc3ccc(S(N)(=O)=O)cc3F)c2)c1 |
| < 100 nM | NS(=O)(=O)c1ccc(Cc2c(-c3ccc(F)c(-c4cccc(F)c4)c3)nn(-c3nc(C(=O)O)cs3)c2CC2CC2)c(F)c1 |
| < 100 nM | NS(=O)(=O)c1ccc(Cc2c(-c3cccc(N4CCC(C(F)(F)F)CC4)c3)nn(-c3nc(C(=O)O)cs3)c2CC2CC2)cc1F |
| < 100 nM | Cc1ccc(-c2cc(-c3nn(-c4nc(C(=O)O)cs4)c(C4CC4)c3Cc3ccc(S(N)(=O)=O)c(F)c3)ccc2F)cc1 |
| < 100 nM | NS(=O)(=O)c1ccc(Cc2c(-c3ccc(F)c(-c4ccccc4)c3)nn(-c3nc(C(=O)O)cs3)c2CC2CC2)cc1 |
| < 100 nM | NS(=O)(=O)c1ccc(Cc2c(-c3cccc(-c4cccc(F)c4)c3)nn(-c3nc(C(=O)O)cs3)c2CC2CC2)cc1 |
| < 100 nM | COc1cccc(-c2cc(-c3nn(-c4nc(C(=O)O)cs4)c(CC4CC4)c3Cc3ccc(S(N)(=O)=O)c(F)c3)ccc2F)c1 |
| < 100 nM | NS(=O)(=O)c1ccc(Cc2c(-c3ccc(F)c(C#CC4(O)CCOC4)c3)nn(-c3nc(C(=O)O)cs3)c2CC2CC2)cc1F (centres undefined) |
| < 100 nM | NS(=O)(=O)c1ccc(Cc2c(-c3cccc(-c4cccc(F)c4)c3)nn(-c3nc(C(=O)O)cs3)c2C2CC2)c(F)c1 |
| < 100 nM | CC(F)C#Cc1cc(-c2nn(-c3nc(C(=O)O)cs3)c(CC3CC3)c2Cc2ccc(S(N)(=O)=O)c(F)c2)ccc1F (centres undefined) |
| < 100 nM | CC#Cc1cc(-c2nn(-c3nc(C(=O)O)cs3)c(CC3CC3)c2Cc2ccc(S(N)(=O)=O)c(F)c2)ccc1F |
| < 100 nM | NS(=O)(=O)c1ccc(Cc2c(-c3ccc(F)c(CCCCC(F)(F)F)c3)nn(-c3nc(C(=O)O)cs3)c2CC2CC2)cc1F |
| < 100 nM | NS(=O)(=O)c1ccc(Cc2c(-c3ccc(F)c(/C=C/C4CCCC4)c3)nn(-c3nc(C(=O)O)cs3)c2CC2CC2)cc1F |
| < 100 nM | Cc1ccc(-c2cccc(-c3nn(-c4nc(C(=O)O)cs4)c(C4CC4)c3Cc3ccc(S(N)(=O)=O)cc3F)c2)cc1 |
| < 100 nM | COc1cc(-c2nn(-c3nc(C(=O)O)cs3)c(CC3CC3)c2Cc2ccc(S(N)(=O)=O)cc2)ccc1F |

| IC50 | Compound |
| --- | --- |
| < 100 nM | N#Cc1c(Cc2ccc(S(N)(=O)=O)cc2)c(-c2ccccc2)nn1-c1nc(C(=O)O)cs1 |
| < 100 nM | Cc1ccc(-c2cc(-c3nn(-c4nc(C(=O)O)cs4)c(CC4CC4)c3Cc3ccc(S(N)(=O)=O)c(Cl)c3)ccc2F)s1 |
| < 100 nM | NS(=O)(=O)c1ccc(Cc2c(-c3ccc(F)c(CC4CC4)c3)nn(-c3nc(C(=O)O)cs3)c2CC2CC2)cc1F |
| < 100 nM | NS(=O)(=O)c1ccc(Cc2c(-c3ccc(F)c(C#CC4CC4)c3)nn(-c3nc(C(=O)O)cs3)c2CC2CC2)cc1 |
| < 100 nM | NS(=O)(=O)c1ccc(Cc2c(-c3cccc(N4CCC(F)(F)CC4)c3)nn(-c3nc(C(=O)O)cs3)c2CC2CC2)cc1F |
| < 100 nM | CC1(C#Cc2cc(-c3nn(-c4nc(C(=O)O)cs4)c(CC4CC4)c3Cc3ccc(S(N)(=O)=O)c(F)c3)ccc2F)COC1 |
| < 100 nM | COc1cccc(-c2cccc(-c3nn(-c4nc(C(=O)O)cs4)c(C(F)(F)F)c3Cc3ccc(S(N)(=O)=O)cc3)c2)c1 |
| < 100 nM | Cc1ccc(-c2cc(-c3nn(-c4nc(C(=O)O)cs4)c(C(F)(F)F)c3Cc3ccc(S(N)(=O)=O)cc3)ccc2F)cc1 |
| < 100 nM | NS(=O)(=O)c1ccc(Cc2c(-c3ccc(F)c(C#CCC4CC4)c3)nn(-c3nc(C(=O)O)cs3)c2CC2CC2)cc1F |
| < 100 nM | NS(=O)(=O)c1ccc(Cc2c(-c3ccc(F)c(C4=CCCC4)c3)nn(-c3nc(C(=O)O)cs3)c2CC2CC2)cc1F |
| < 100 nM | NS(=O)(=O)c1ccc(Cc2c(-c3ccc(F)c(C4CC4)c3)nn(-c3nc(C(=O)O)cs3)c2CC2CC2)cc1Cl |
| < 100 nM | CC(c1ccccc1)c1cc(-c2nn(-c3nc(C(=O)O)cs3)c(CC3CC3)c2Cc2ccc(S(N)(=O)=O)c(F)c2)ccc1F (centres undefined) |
| < 100 nM | Cc1c(Cc2ccc(S(N)(=O)=O)cc2)c(-c2ccccc2)nn1-c1nc(C(=O)O)cs1 |
| < 100 nM | C#Cc1cc(-c2nn(-c3nc(C(=O)O)cs3)c(CC3CC3)c2Cc2ccc(S(N)(=O)=O)c(F)c2)ccc1F |
| < 100 nM | NS(=O)(=O)c1ccc(Cc2c(-c3ccc(F)c(-c4ccc(F)cc4)c3)nn(-c3nc(C(=O)O)cs3)c2CC2CC2)c(F)c1 |
